Results on three molecules are retold here after BindingDB's records for patent US20230295182 (Idorsia Pharmaceuticals, 2023).

Sequence of Galectin-3 (P17931 whole entry): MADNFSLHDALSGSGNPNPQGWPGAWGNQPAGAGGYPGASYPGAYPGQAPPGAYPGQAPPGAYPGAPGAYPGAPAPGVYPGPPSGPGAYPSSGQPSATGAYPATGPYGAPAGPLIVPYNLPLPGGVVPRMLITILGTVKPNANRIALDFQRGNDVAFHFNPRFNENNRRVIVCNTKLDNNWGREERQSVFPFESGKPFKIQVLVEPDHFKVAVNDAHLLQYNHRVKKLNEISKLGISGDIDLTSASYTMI

The target of the experiment is Galectin-3 (Homo sapiens, UniProt P17931). The experiment is described as follows: Evaluation of Compound Inhibitory Activity (IC50). On the procedure:
Briefly, compounds are serially diluted in DMSO (working dilutions). ASF-coated 384 well plates are supplemented with 22.8 uL/well of biotinylated hGal-3 or hGal-1 in assay buffer (i.e. 300-1000 ng/mL biotinylated hGal-3 or hGal-1) to which 1.2 uL of compound working dilutions are added and mixed. Plates are incubated for 3 hours at 4 C., then washed with cold assay buffer (3x50 uL), incubated for 1 hour with 25 uL/well of a streptavidin-peroxidase solution (diluted in assay buffer to 80 ng/mL) at 4 C., followed by further washing steps with assay buffer (3x50 uL). Finally, 25 µL/well of ABTS substrate is added.
As to `CO[C@@H]1[C@@H](n2cc(-c3cc(F)c(F)c(F)c3)nn2)[C@@H](O)[C@@H](CO)O[C@@H]1CC1=NOC2(CCC(C)CC2)C1` (stereo partly drawn) [US20230295182, Example 1.30], it took 500 nM to reach half-maximal inhibition (IC50). On to `OC[C@H]1O[C@H](CC2=NOC3(CCCCC3)C2)[C@H](OCC(F)F)[C@@H](n2cc(-c3cc(F)c(F)c(F)c3)nn2)[C@H]1O` [US20230295182, Example 1.67], for which the IC50 (as a rule, the point on the concentration scale where inhibition reaches its midpoint) amounted to 230 nM. Turning to `CO[C@@H]1[C@@H](n2cc(-c3ccc(C)c(F)c3F)nn2)[C@@H](O)[C@@H](CO)O[C@@H]1CN1CC2(CCCCC2)NC1=O` [US20230295182, Example 4.01], the IC50 worked out at 46 nM.
